Assays:
Assay in all cases: relative viability (nuclei count vs DMSO), 5 days (fraction); higher = more cells survive
AZD6482 + Vorinostat = compound: Cc1cc([C@@H](C)Nc2ccccc2C(=O)O)c2nc(N3CCOCC3)cc(=O)n2c1 [AZD6482] + O=C(CCCCCCC(=O)Nc1ccccc1)NO [Vorinostat] (partner 1 µM)
Procedure, shortened: (§1)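 Lung cancer cell lines were pin-tool dosed in 1536-well plates on the day after seeding, with either a lone drug or a fixed anchor-drug dose plus five library-drug doses (not always all listed) in √10 steps. Nuclei were counted on 4× images after 5 days. Relative viability is the ratio of treated-well to vehicle-well nuclei counts, with each value a median of duplicate plates.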

AZD6482 + Palbociclib = compound: Cc1cc([C@@H](C)Nc2ccccc2C(=O)O)c2nc(N3CCOCC3)cc(=O)n2c1 [AZD6482] + CC(=O)c1c(C)c2cnc(Nc3ccc(N4CCNCC4)cn3)nc2n(C2CCCC2)c1=O [Palbociclib] (partner 0.5 µM)
Procedure, shortened: as §1

[1] = compound: COc1cc2nc(N3CCCN(C)CC3)nc(NC3CCN(Cc4ccccc4)CC3)c2cc1OC + CCNC(=O)c1noc(-c2cc(C(C)C)c(O)cc2O)c1-c1ccc(CN2CCOCC2)cc1 [Luminespib] (partner 0.01 µM)
Procedure, shortened: as §1

AZD6482 + OSI-027 = compound: Cc1cc([C@@H](C)Nc2ccccc2C(=O)O)c2nc(N3CCOCC3)cc(=O)n2c1 [AZD6482] + COc1cccc2cc(-c3nc([C@H]4CC[C@H](C(=O)O)CC4)n4ncnc(N)c34)[nH]c12 [OSI-027] (partner 0.5 µM)
Procedure, shortened: as §1

Work on UMC-11 yielded a relative viability (AZD6482 + Vorinostat; first compound 0.08 µM) of 0.326, a relative viability (AZD6482 + Vorinostat; first compound 0.253 µM) of 0.347 and a relative viability (AZD6482 + Vorinostat; first compound 0.8 µM) of 0.384. The relative viability (AZD6482 + Vorinostat; first compound 2.53 µM) was 0.341, the relative viability (AZD6482 + Vorinostat; first compound 8 µM) was 0.331 and the relative viability (AZD6482 + Palbociclib; first compound 0.08 µM) was 0.342. It also gave a relative viability (AZD6482 + Palbociclib; first compound 0.253 µM) of 0.297, a relative viability (AZD6482 + Palbociclib; first compound 0.8 µM) of 0.321 and a relative viability (AZD6482 + Palbociclib; first compound 8 µM) of 0.324. For the same cell line, the relative viability ([1]; first compound 0.2 µM) was 1.06, the relative viability ([1]; first compound 0.6325 µM) was 1.08 and the relative viability ([1]; first compound 2 µM) was 1.05. The relative viability ([1]; first compound 6.325 µM) was 0.816, the relative viability (AZD6482 + OSI-027; first compound 0.08 µM) was 0.448 and the relative viability (AZD6482 + OSI-027; first compound 0.253 µM) was 0.464. For the same cell line, the relative viability (AZD6482 + OSI-027; first compound 0.8 µM) was 0.497, the relative viability (AZD6482 + OSI-027; first compound 2.53 µM) was 0.459 and the relative viability (AZD6482 + OSI-027; first compound 8 µM) was 0.47.
